Laboratory results as given in patent US20230085307A1, “PYRIDAZINONE COMPOUND AND HERBICIDE” (NISSAN CHEMICAL CORPORATION, priority 2019, published 2023).

Assays:
lambsquarters = assay: Test Example 4: herbicidal effect by soil treatment (Table 19, symbol O); assay type: in vivo, lambsquarters (Chenopodium album); settings: amount of applied herbicide 320 g/ha
How it was run: (§1)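 Herbicidal effect was rated 3 weeks after treatment, using the scoring criteria of an earlier test. The compound, formulated as an emulsion and diluted in water to a set herbicide amount, had been sprayed uniformly on soil over freshly sown seeds. Growth took place in a greenhouse at 25° C. to 30° C.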

chickweed [1] = assay: Test Example 5: herbicidal effect by foliage application, plastic box (Table 20, symbol P); assay type: in vivo, common chickweed (Stellaria media); settings: foliage application, AAH 320 g/ha, evaluated three weeks after application
How it was run: (§2)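 Foliar spray test: emulsion formulation diluted in water to a set application rate, sprayed onto 14-day-old plants raised in diluvial soil at 25° C to 30° C under glass. Both herbicidal effect and crop effect rated visually three weeks later.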

Italian ryegrass [2] = assay: Test Example 4: herbicidal effect by soil treatment (Table 19, symbol K); assay type: in vivo, Italian ryegrass (Lolium multiflorum); settings: amount of applied herbicide 320 g/ha
How it was run: as §1

chickweed [3] = assay: Test Example 4: herbicidal effect by soil treatment (Table 19, symbol P); assay type: in vivo, common chickweed (Stellaria media); settings: amount of applied herbicide 320 g/ha
How it was run: as §1

velvetleaf [4] = assay: Test Example 4: herbicidal effect by soil treatment (Table 19, symbol M); assay type: in vivo, velvetleaf (Abutilon theophrasti); settings: amount of applied herbicide 320 g/ha
How it was run: as §1

wild oat [5] = assay: Test Example 4: herbicidal effect by soil treatment (Table 19, symbol I); assay type: in vivo, wild oat (Avena fatua); settings: amount of applied herbicide 320 g/ha
How it was run: as §1

rice flat sedge = assay: Test Example 3: herbicidal effect by foliage application, Wagner pot (Table 18, symbol E); assay type: in vivo, rice flat sedge (Cyperus iria); settings: amount of applied herbicide 320 g/ha
How it was run: (§3)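 Plants were sown in alluvial soil held under 0.1–0.5 cm standing water and grown 14 days in a greenhouse at 25–30 °C. An emulsifiable formulation, water-diluted to the set dose, was then sprayed onto the foliage, and effects were scored three weeks later using previously defined criteria.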

persian speedwell = assay: Test Example 5: herbicidal effect by foliage application, plastic box (Table 20, symbol R); assay type: in vivo, Persian speedwell (Veronica persica); settings: foliage application, AAH 320 g/ha, evaluated three weeks after application
How it was run: as §2

redroot pigweed [6] = assay: Test Example 4: herbicidal effect by soil treatment (Table 19, symbol N); assay type: in vivo, redroot pigweed (Amaranthus retroflexus); settings: amount of applied herbicide 320 g/ha
How it was run: as §1

southern crabgrass = assay: Test Example 4: herbicidal effect by soil treatment (Table 19, symbol F); assay type: in vivo, southern crabgrass (Digitaria ciliaris); settings: amount of applied herbicide 320 g/ha
How it was run: as §1

Italian ryegrass [7] = assay: Test Example 5: herbicidal effect by foliage application, plastic box (Table 20, symbol K); assay type: in vivo, Italian ryegrass (Lolium multiflorum); settings: foliage application, AAH 320 g/ha, evaluated three weeks after application
How it was run: as §2

velvetleaf [8] = assay: Test Example 5: herbicidal effect by foliage application, plastic box (Table 20, symbol M); assay type: in vivo, velvetleaf (Abutilon theophrasti); settings: foliage application, AAH 320 g/ha, evaluated three weeks after application
How it was run: as §2

late watergrass = assay: Test Example 2: herbicidal activity, application during weed generation under submerged conditions (Table 17, symbol A); assay type: in vivo, late watergrass (Echinochloa oryzicola); settings: AAH 320 g/ha; application during weed generation, submerged conditions
How it was run: (§4)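 Wagner pot, alluvial soil, 4 cm flood; mixed sowing of all species; greenhouse 25° C.–30° C. Emulsifiable formulation, water-diluted to predetermined dose, applied to paddy water at 1–2 leaf stage. Effect rated at 3 wk using the earlier test's scoring criteria.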

redroot pigweed [9] = assay: Test Example 5: herbicidal effect by foliage application, plastic box (Table 20, symbol N); assay type: in vivo, redroot pigweed (Amaranthus retroflexus); settings: foliage application, AAH 320 g/ha, evaluated three weeks after application
How it was run: as §2

Japanese bulrush = assay: Test Example 2: herbicidal activity, application during weed generation under submerged conditions (Table 17, symbol B); assay type: in vivo, Japanese bulrush (Schoenoplectus juncoides); settings: AAH 320 g/ha; application during weed generation, submerged conditions
How it was run: as §4

green foxtail [10] = assay: Test Example 4: herbicidal effect by soil treatment (Table 19, symbol G); assay type: in vivo, green foxtail (Setaria viridis); settings: amount of applied herbicide 320 g/ha
How it was run: as §1

barnyard grass [11] = assay: Test Example 3: herbicidal effect by foliage application, Wagner pot (Table 18, symbol H); assay type: in vivo, barnyard grass (Echinochloa crus-galli); settings: amount of applied herbicide 320 g/ha
How it was run: as §3

barnyard grass [12] = assay: Test Example 4: herbicidal effect by soil treatment (Table 19, symbol H); assay type: in vivo, barnyard grass (Echinochloa crus-galli); settings: amount of applied herbicide 320 g/ha
How it was run: as §1

blackgrass = assay: Test Example 5: herbicidal effect by foliage application, plastic box (Table 20, symbol J); assay type: in vivo, blackgrass (Alopecurus myosuroides); settings: foliage application, AAH 320 g/ha, evaluated three weeks after application
How it was run: as §2

green foxtail [13] = assay: Test Example 5: herbicidal effect by foliage application, plastic box (Table 20, symbol G); assay type: in vivo, green foxtail (Setaria viridis); settings: foliage application, AAH 320 g/ha, evaluated three weeks after application
How it was run: as §2

wild oat [14] = assay: Test Example 5: herbicidal effect by foliage application, plastic box (Table 20, symbol I); assay type: in vivo, wild oat (Avena fatua); settings: foliage application, AAH 320 g/ha, evaluated three weeks after application
How it was run: as §2

windgrass = assay: Test Example 5: herbicidal effect by foliage application, plastic box (Table 20, symbol L); assay type: in vivo, windgrass (Apera spica-venti); settings: foliage application, AAH 320 g/ha, evaluated three weeks after application
How it was run: as §2

Row | SMILES | herbicidal effect on O: lambsquarters (lambsquarters) | P: chickweed, herbicidal effect (criteria 0-5) (chickweed [1]) | herbicidal effect on K: Italian ryegrass (Italian ryegrass [2]) | herbicidal effect on P: chickweed (chickweed [3]) | herbicidal effect on M: velvetleaf (velvetleaf [4]) | herbicidal effect on I: wild oat (wild oat [5]) | herbicidal effect on E: rice flat sedge (rice flat sedge) | R: persian speedwell, herbicidal effect (criteria 0-5) (persian speedwell) | herbicidal effect on N: redroot pigweed (redroot pigweed [6]) | herbicidal effect on F: southern crabgrass (southern crabgrass) | K: Italian ryegrass, herbicidal effect (criteria 0-5) (Italian ryegrass [7]) | M: velvetleaf, herbicidal effect (criteria 0-5) (velvetleaf [8]) | herbicidal effect rating, A: late watergrass (late watergrass) | N: redroot pigweed, herbicidal effect (criteria 0-5) (redroot pigweed [9]) | herbicidal effect rating, B: Japanese bulrush (Japanese bulrush) | herbicidal effect on G: green foxtail (green foxtail [10]) | herbicidal effect on H: barnyard grass (barnyard grass [11]) | herbicidal effect on H: barnyard grass (barnyard grass [12]) | J: blackgrass, herbicidal effect (criteria 0-5) (blackgrass) | G: green foxtail, herbicidal effect (criteria 0-5) (green foxtail [13]) | other results
1 | C#CCSCc1ccc(-c2sc3ccc(F)cc3c2-c2c(O)c(C)nn(C)c2=O)cc1 [2-325] | 4 (Herbicidal rate of 70% or more and less than 90%) | 5 (Herbicidal rate of 90% or more (almost completely withered)) | 4 (Herbicidal rate of 70% or more and less than 90%) | 0 (Herbicidal rate of 5% or less (almost no effect)) | 0 (Herbicidal rate of 5% or less (almost no effect)) | 0 (Herbicidal rate of 5% or less (almost no effect)) | 5 (Herbicidal rate of 90% or more (almost completely withered)) | 5 (Herbicidal rate of 90% or more (almost completely withered)) | 4 (Herbicidal rate of 70% or more and less than 90%) | 0 (Herbicidal rate of 5% or less (almost no effect)) | 4 (Herbicidal rate of 70% or more and less than 90%) | 5 (Herbicidal rate of 90% or more (almost completely withered)) | 2 (Herbicidal rate of 20% or more and less than 40%) | 5 (Herbicidal rate of 90% or more (almost completely withered)) | 2 (Herbicidal rate of 20% or more and less than 40%) | 2 (Herbicidal rate of 20% or more and less than 40%) | 5 (Herbicidal rate of 90% or more (almost completely withered)) | 3 (Herbicidal rate of 40% or more and less than 70%) | 4 (Herbicidal rate of 70% or more and less than 90%) | 5 (Herbicidal rate of 90% or more (almost completely withered)) | I: wild oat, herbicidal effect (criteria 0-5) (wild oat [14]): 4 (Herbicidal rate of 70% or more and less than 90%); L: windgrass, herbicidal effect (criteria 0-5) (windgrass): 5 (Herbicidal rate of 90% or more (almost completely withered))
2 | COCCSCc1ccc(-c2sc3ccc(F)cc3c2-c2c(O)c(C)nn(C)c2=O)cc1 [2-327] | 4 (Herbicidal rate of 70% or more and less than 90%) | 5 (Herbicidal rate of 90% or more (almost completely withered)) | 4 (Herbicidal rate of 70% or more and less than 90%) | 1 (Herbicidal rate of 5% or more and less than 20%) | 1 (Herbicidal rate of 5% or more and less than 20%) | 0 (Herbicidal rate of 5% or less (almost no effect)) | 4 (Herbicidal rate of 70% or more and less than 90%) | 5 (Herbicidal rate of 90% or more (almost completely withered)) | 4 (Herbicidal rate of 70% or more and less than 90%) | 2 (Herbicidal rate of 20% or more and less than 40%) | 4 (Herbicidal rate of 70% or more and less than 90%) | 5 (Herbicidal rate of 90% or more (almost completely withered)) | 0 (Herbicidal rate of 5% or less (almost no effect)) | 5 (Herbicidal rate of 90% or more (almost completely withered)) | 2 (Herbicidal rate of 20% or more and less than 40%) | 4 (Herbicidal rate of 70% or more and less than 90%) | 5 (Herbicidal rate of 90% or more (almost completely withered)) | 3 (Herbicidal rate of 40% or more and less than 70%) | 4 (Herbicidal rate of 70% or more and less than 90%) | 5 (Herbicidal rate of 90% or more (almost completely withered)) | I: wild oat, herbicidal effect (criteria 0-5) (wild oat [14]): 3 (Herbicidal rate of 40% or more and less than 70%); L: windgrass, herbicidal effect (criteria 0-5) (windgrass): 5 (Herbicidal rate of 90% or more (almost completely withered))
3 | Cc1nn(C)c(=O)c(-c2c(-c3ccc(CSCC(F)(F)F)cc3)sc3ccc(F)cc23)c1O [2-331] | 4 (Herbicidal rate of 70% or more and less than 90%) | 5 (Herbicidal rate of 90% or more (almost completely withered)) | 5 (Herbicidal rate of 90% or more (almost completely withered)) | 0 (Herbicidal rate of 5% or less (almost no effect)) | 2 (Herbicidal rate of 20% or more and less than 40%) | 0 (Herbicidal rate of 5% or less (almost no effect)) | 4 (Herbicidal rate of 70% or more and less than 90%) | 5 (Herbicidal rate of 90% or more (almost completely withered)) | 5 (Herbicidal rate of 90% or more (almost completely withered)) | 3 (Herbicidal rate of 40% or more and less than 70%) | 4 (Herbicidal rate of 70% or more and less than 90%) | 5 (Herbicidal rate of 90% or more (almost completely withered)) | 3 (Herbicidal rate of 40% or more and less than 70%) | 5 (Herbicidal rate of 90% or more (almost completely withered)) | 0 (Herbicidal rate of 5% or less (almost no effect)) | 4 (Herbicidal rate of 70% or more and less than 90%) | 5 (Herbicidal rate of 90% or more (almost completely withered)) | 3 (Herbicidal rate of 40% or more and less than 70%) | 4 (Herbicidal rate of 70% or more and less than 90%) | 5 (Herbicidal rate of 90% or more (almost completely withered)) | I: wild oat, herbicidal effect (criteria 0-5) (wild oat [14]): 3 (Herbicidal rate of 40% or more and less than 70%); L: windgrass, herbicidal effect (criteria 0-5) (windgrass): 4 (Herbicidal rate of 70% or more and less than 90%)
